Key:
Assay type in all cases: functional, A2780 ADR
[1] = Reversal of multidrug resistance in human 2780AD cells assessed as [3H]vincristine accumulation at 0.1 ug/mL after 2 hrs relative to control
[2] = Reversal of multidrug resistance in human 2780AD cells assessed as [3H]vincristine accumulation at 1 ug/mL after 2 hrs relative to control
[3] = Reversal of multidrug resistance in human 2780AD cells assessed as [3H]vincristine accumulation at 10 ug/mL after 2 hrs relative to control
[4] = Reversal of multidrug resistance in human 2780AD cells assessed as [3H]vincristine accumulation at 0.1 ug/mL after 2 hrs relative to verapamil
[5] = Reversal of multidrug resistance in human 2780AD cells assessed as [3H]vincristine accumulation at 1 ug/mL after 2 hrs relative to verapamil
[6] = Reversal of multidrug resistance in human 2780AD cells assessed as [3H]vincristine accumulation at 10 ug/mL after 2 hrs relative to verapamil

Row | SMILES | Activity [1] [%] | Activity [2] [%] | Activity [3] [%] | Activity [4] [%] | Activity [5] [%] | Activity [6] [%]
1 | COc1ccc(CCN(C)CCCC(C#N)(c2ccc(OC)c(OC)c2)C(C)C)cc1OC (centres undefined) [VERAPAMIL] | 104 | 145 | 352 | – | – | –
2 | C=C1[C@@H](OC(C)=O)CC[C@]2(C)[C@@H]1C[C@@H]1C[C@H](OC(C)=O)C(C)=C([C@@H](OC(C)=O)[C@@H]2OC(C)=O)C1(C)C [TAXUSIN] | 106 | 228 | 461 | 102 | 157 | 136
